Source: patent US8686044B2, “Amide derivative, pest control agent containing the amide derivative, and use of the amide derivative” (Mitsui Chemicals Agro, Inc., priority 2008, dated 2014)

Key:
Type in all cases: in vivo
Helicoverpa armigera = test: Pesticidal test against Helicoverpa armigera (cabbage leaf disk dip); settings: foliar, 72 h, concentration 1 ppm, 2-stage larvae, examined after 3 days, 25° C., read-out: pesticidal rate
Procedure, shortened: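 Cabbage leaf disks were dipped for 30 s in test solution at a set concentration and air-dried. Second-instar larvae were placed one per hole and held at 25 °C, with live and dead counts taken after 3 days. Five larvae per group were tested in two replicates.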

Spodoptera litura = test: Pesticidal test against Spodoptera litura (cabbage leaf dip); settings: foliar, 144 h, concentration 1 ppm, 2-stage larvae, examined after 6 days, 25° C., read-out: pesticidal rate
Procedure, shortened: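 Cabbage leaf pieces dipped 30 seconds in compound solution at a predetermined concentration and air-dried, then offered to second-stage larvae, five per group in two replicates. Held at 25° C. Living and dead larvae counted after 6 days.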

Laodelphax striatellus = test: Pesticidal test against Laodelphax striatellus (rice seedling spray); settings: 144 h, concentration 100 ppm, 3-stage larvae, examined after 6 days, 25° C., read-out: pesticidal rate
Procedure, shortened: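 Rice seedlings sprayed with 2.5 ml acetone solution of compound at a predetermined concentration, air-dried, then infested with third-stage Laodelphax striatellus larvae in capped water-containing tubes at 25 °C. Living and dead insects counted after 6 days; ten larvae per group, two replicates.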

Choristoneura magnanima = test: Pesticidal test against Choristoneura magnanima (artificial feed dip); settings: 144 h, concentration 1 ppm, 2-stage larvae, examined after 6 days, 25° C., read-out: pesticidal rate
Procedure, shortened: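 Thin artificial feed slices dipped 30 s in compound solution at a set concentration, air-dried, then offered to 2nd-stage larvae held at 25° C. Living and dead larvae counted after 6 days; five larvae per group, two replicates.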

Plutella xylostella = test: Pesticidal test against Plutella xylostella (cabbage leaf dip); settings: foliar, 144 h, concentration 1 ppm, 2-stage larvae, examined after 6 days, 25° C., read-out: pesticidal rate
Procedure, shortened: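 Cabbage leaf pieces dipped 30 s in test solution at a predetermined concentration, air-dried, then offered to 2nd-instar larvae, five per group in duplicate. Held at 25° C; living and dead larvae counted after 6 days.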

Blattella germanica = test: Pesticidal test against Blattella germanica (petri dish dry film); settings: 24 h, concentration 100 ppm, female adults, examined after 1 day, 25° C., read-out: pesticidal rate
Procedure: Pesticidal Test against Blattella germanica
1 ml of an acetone solution in which a test compound had been prepared at a predetermined concentration was added dropwise to a petri dish having a diameter of 9 cm, and air-dried, and then the female adults of Blattella germanica were released and the petri dish was capped. They were left to stand in a thermostatic chamber at 25° C., and the numbers of the living pests and the dead pests were examined after 1 day. The test was carried out with five larvae per group in two replicates.

Adoxophyes honmai = test: Pesticidal test against Adoxophyes honmai (artificial feed dip); settings: 144 h, 2-stage larvae, examined after 6 days, 25° C., read-out: pesticidal rate; for pest or weed control at 10 ppm: concentration 10 ppm; for pest or weed control at 1 ppm: concentration 1 ppm
Procedure, shortened: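 Thin artificial feed slices dipped 30 s in test solution at a predetermined concentration, air-dried, then offered to 2nd-stage larvae. Kept at 25° C; live and dead larvae counted after 6 days. Five larvae per group, two replicates.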

Musca domestica = test: Pesticidal test against Musca domestica (petri dish dry film); settings: 24 h, concentration 100 ppm, female adults, examined after 1 day, 25° C., read-out: pesticidal rate
Procedure, shortened: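 Dry film from 1 ml acetone solution of compound at a predetermined concentration, air-dried in a 9 cm petri dish; female adult flies released and dish capped. Held at 25° C; living and dead counted after 1 day. Five insects per group, two replicates.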

CN(C(=O)c1ccc(Cl)nc1)c1cccc(C(=O)Nc2c(Br)cc(C(F)(C(F)(F)F)C(F)(F)F)cc2C(F)(F)F)c1F [7-1617]
≥ 70%: pest or weed control at 1 ppm (Helicoverpa armigera) | pest or weed control at 1 ppm (Spodoptera litura) | pest or weed control at 100 ppm (Laodelphax striatellus) | pest or weed control at 1 ppm (Choristoneura magnanima) | pest or weed control at 1 ppm (Plutella xylostella) | pest or weed control at 100 ppm (Blattella germanica)

O=C(Nc1cccc(C(=O)Nc2c(Br)cc(C(F)(C(F)(F)F)C(F)(F)C(F)(F)F)cc2C(F)(F)F)c1)c1ccc(Cl)nc1 (centres unmarked) [6-389]
≥ 70%: pest or weed control at 10 ppm (Adoxophyes honmai) | pest or weed control at 1 ppm (Helicoverpa armigera) | pest or weed control at 1 ppm (Spodoptera litura) | pest or weed control at 1 ppm (Plutella xylostella) | pest or weed control at 100 ppm (Blattella germanica) | pest or weed control at 100 ppm (Musca domestica)

O=C(Nc1cccc(C(=O)Nc2c(I)cc(C(F)(C(F)(F)F)C(F)(F)F)cc2C(F)(F)F)c1)c1cccc(F)c1 [6-426]
≥ 70%: pest or weed control at 10 ppm (Adoxophyes honmai) | pest or weed control at 1 ppm (Helicoverpa armigera) | pest or weed control at 1 ppm (Spodoptera litura) | pest or weed control at 1 ppm (Choristoneura magnanima) | pest or weed control at 1 ppm (Plutella xylostella) | pest or weed control at 100 ppm (Blattella germanica) | pest or weed control at 100 ppm (Musca domestica)

CN(C(=O)c1cccc(C#N)c1)c1cccc(C(=O)Nc2c(Br)cc(C(F)(C(F)(F)F)C(F)(F)F)cc2C(F)(F)F)c1F [7-1594]
≥ 70%: pest or weed control at 1 ppm (Adoxophyes honmai) | pest or weed control at 1 ppm (Helicoverpa armigera) | pest or weed control at 1 ppm (Spodoptera litura) | pest or weed control at 100 ppm (Laodelphax striatellus) | pest or weed control at 1 ppm (Choristoneura magnanima) | pest or weed control at 1 ppm (Plutella xylostella) | pest or weed control at 100 ppm (Blattella germanica)

O=C(Nc1cccc(C(=O)Nc2c(Br)cc(C(F)(C(F)(F)F)C(F)(F)F)cc2C(F)(F)F)c1F)c1cccc(F)c1 [6-1576]
≥ 70%: pest or weed control at 1 ppm (Adoxophyes honmai) | pest or weed control at 1 ppm (Helicoverpa armigera) | pest or weed control at 1 ppm (Spodoptera litura) | pest or weed control at 100 ppm (Laodelphax striatellus) | pest or weed control at 1 ppm (Plutella xylostella) | pest or weed control at 100 ppm (Blattella germanica) | pest or weed control at 100 ppm (Musca domestica)

CN(C(=O)c1ccc(Cl)nc1)c1cccc(C(=O)Nc2c(Br)cc(C(F)(C(F)(F)F)C(F)(F)C(F)(F)F)cc2C(F)(F)F)c1 (centres unmarked) [7-389]
≥ 70%: pest or weed control at 1 ppm (Helicoverpa armigera) | pest or weed control at 1 ppm (Spodoptera litura) | pest or weed control at 100 ppm (Laodelphax striatellus) | pest or weed control at 1 ppm (Choristoneura magnanima) | pest or weed control at 1 ppm (Plutella xylostella) | pest or weed control at 100 ppm (Blattella germanica) | pest or weed control at 100 ppm (Musca domestica)

CN(C(=O)c1ccc(C#N)cc1)c1cccc(C(=O)Nc2c(Br)cc(C(F)(C(F)(F)F)C(F)(F)F)cc2Br)c1F [7-1125]
≥ 70%: pest or weed control at 1 ppm (Helicoverpa armigera) | pest or weed control at 1 ppm (Spodoptera litura) | pest or weed control at 100 ppm (Laodelphax striatellus) | pest or weed control at 1 ppm (Choristoneura magnanima) | pest or weed control at 1 ppm (Plutella xylostella) | pest or weed control at 100 ppm (Blattella germanica)

N#Cc1ccc(C(=O)Nc2cccc(C(=O)Nc3c(Br)cc(C(F)(C(F)(F)F)C(F)(F)F)cc3C(F)(F)F)c2F)cc1 [6-1595]
≥ 70%: pest or weed control at 1 ppm (Helicoverpa armigera) | pest or weed control at 1 ppm (Spodoptera litura) | pest or weed control at 100 ppm (Laodelphax striatellus) | pest or weed control at 1 ppm (Choristoneura magnanima) | pest or weed control at 1 ppm (Plutella xylostella) | pest or weed control at 100 ppm (Blattella germanica)

N#Cc1ccc(C(=O)Nc2cccc(C(=O)Nc3c(Br)cc(C(F)(C(F)(F)F)C(F)(F)C(F)(F)F)cc3C(F)(F)F)c2)cc1 (centres unmarked) [6-367]
≥ 70%: pest or weed control at 10 ppm (Adoxophyes honmai) | pest or weed control at 1 ppm (Helicoverpa armigera) | pest or weed control at 1 ppm (Spodoptera litura) | pest or weed control at 1 ppm (Choristoneura magnanima) | pest or weed control at 1 ppm (Plutella xylostella) | pest or weed control at 100 ppm (Blattella germanica)

CN(C(=O)c1ccc(C#N)cc1)c1cccc(C(=O)Nc2c(Br)cc(C(F)(C(F)(F)F)C(F)(F)F)cc2C(F)(F)F)c1F [7-1595]
≥ 70%: pest or weed control at 1 ppm (Helicoverpa armigera) | pest or weed control at 1 ppm (Spodoptera litura) | pest or weed control at 100 ppm (Laodelphax striatellus) | pest or weed control at 1 ppm (Choristoneura magnanima) | pest or weed control at 1 ppm (Plutella xylostella) | pest or weed control at 100 ppm (Blattella germanica)

N#Cc1cccc(C(=O)Nc2cccc(C(=O)Nc3c(Br)cc(C(F)(C(F)(F)F)C(F)(F)F)cc3C(F)(F)F)c2F)c1 [6-1594]
≥ 70%: pest or weed control at 1 ppm (Adoxophyes honmai) | pest or weed control at 1 ppm (Helicoverpa armigera) | pest or weed control at 1 ppm (Spodoptera litura) | pest or weed control at 100 ppm (Laodelphax striatellus) | pest or weed control at 1 ppm (Plutella xylostella) | pest or weed control at 100 ppm (Blattella germanica) | pest or weed control at 100 ppm (Musca domestica)
